From patent US7691842B2, “Tricyclic 6-alkylidene-penems as β-lactamase inhibitors” (Wyeth LLC, priority 2002, dated 2010) come the findings set out here.

One test relates to E. Cloacae GC1477 (Ampc). The test is described as follows: Antimicrobial susceptibility testing, microbroth dilution MIC of piperacillin + inhibitor. It is filed as cell-based. Conditions: piperacillin combined with constant 4 μg/ml inhibitor; Inc: 35° C. for 18 hours. As to the method: (§1) Antimicrobial susceptibility testing. The in vitro activities of the antibiotics were determined by the microbroth dilution method as recommended by the National Committee for Clinical Laboratory Standards (NCCLS). (NCCLS. 2000. Methods for Dilution Antimicrobial Susceptibility Tests for Bacteria That Grow Aerobically; Approved Standards: M7-A5, vol. 19. National Committee for Clinical Laboratory Standards, Villanova, Pa.). Mueller-Hinton it broth (MHBII)(BBL Cockeysville, Md.), was used for the testing procedure. Microtiter plates containing 50 μl per well of two-fold serial dilutions of piperacillin combined with a constant amount (4 μg/ml) of a B-lactamase inhibitor (final concentration) were inoculated with 50 μl of inoculum to yield the appropriate density (10^5 CFU/ml) in 100 μl. The plates were incubated for 18-22 hours at 35° C. in ambient air.
On the technique in general: Broth dilution looks for growth in wells or tubes with falling amounts of substance.

Another test concerns E. Coli GC2844. The test is described as above. It is filed as cell-based. Conditions: piperacillin combined with constant 4 μg/ml inhibitor; Inc: 35° C. for 18 hours. As to the method:
as §1

In the next test the test system is E. Coli GC2847 (TEM-1). The test is described as above. It is filed as cell-based. Conditions: piperacillin combined with constant 4 μg/ml inhibitor; Inc: 35° C. for 18 hours. As to the method:
as §1

In test [1] the test system is P. aeruginos GC1764 (Ampc). Described as above. It is filed as cell-based. The following applies: piperacillin combined with constant 4 μg/ml inhibitor; Inc: 35° C. for 18 hours. As to the method: as §1
The test system of a further test is E. Coli GC2920 (IRT-2). Described as above. Format: cell-based. Conditions: piperacillin combined with constant 4 μg/ml inhibitor; Inc: 35° C. for 18 hours. As to the method: as §1
The next test has as its system E. Coli GC2894 (Ampc). The test is described as above. It is filed as cell-based. The following applies: piperacillin combined with constant 4 μg/ml inhibitor; Inc: 35° C. for 18 hours. The method, then:
as §1

In the next test the test system is S. aureus GC2216. The description is as above. Format: cell-based. The following applies: piperacillin combined with constant 4 μg/ml inhibitor; Inc: 35° C. for 18 hours. The method, then: as §1
The subject of test [2] is S. Marcescens GC1781 Sme-1 + Ampc. The description is as above. It is filed as cell-based. Conditions: piperacillin combined with constant 4 μg/ml inhibitor; Inc: 35° C. for 18 hours. As to the method: as §1
In a further test the test system is E. Coli GC2203. The test is described as above. It is filed as cell-based. The following applies: piperacillin combined with constant 4 μg/ml inhibitor; Inc: 35° C. for 18 hours. As to the method:
as §1

A further test has as its target class C enzyme AmpC (Enterobacter cloacae, UniProt P05364). Briefly: biochemical. Set-up: species or system Enterobacter cloaca. The following applies: enzyme 2.1 nM; 10 min preincubation at 25° C.; nitrocefin 50 μg/ml; 50 mM PO4, pH 7.0; read-out: IC50 (nM) Class C AmpC. The procedure, abridged: (§2)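 Purified enzymes TEM-1 (4.3 nM), Imi-1 (7.1 nM), CcrA (1.2 nM) and AmpC (2.1 nM) were preincubated with inhibitor 10 min at 25 °C in 50 mM PO4, pH 7.0. Nitrocefin (50 μg/ml) hydrolysis rates at 495 nm over 5 min gave % inhibition versus control; IC50 determined graphically.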

Test [3] addresses class A β-lactamase Imi-1 (Enterobacter cloacae, UniProt Q46991). The test is described as follows: β-Lactamase inhibition, IC50 determination (nitrocefin, spectrophotometric). Format: biochemical. Conditions: enzyme 7.1 nM; 10 min preincubation at 25° C.; nitrocefin 50 μg/ml; 50 mM PO4, pH 7.0; read-out: IC50 (nM) Class A Imi.
A further test concerns the target class B enzyme CcrA (Bacteroides fragilis, UniProt P25910). The test is described as above. Format: biochemical. The following applies: enzyme 1.2 nM; 10 min preincubation at 25° C.; nitrocefin 50 μg/ml; 50 mM PO4, pH 7.0; read-out: IC50 (nM) Class B Ccr. Put shortly: as §2
Test [4] has as its target class A β-lactamase TEM-1 (Escherichia coli, UniProt P62593). The test is described as above. It is filed as biochemical, E. Coli. The following applies: enzyme 4.3 nM; 10 min preincubation at 25° C.; nitrocefin 50 μg/ml; 50 mM PO4, pH 7.0; read-out: IC50 (nM) Class A TEM-1. Put shortly:
as §2

The test system of test [5] is Clinical isolates that have been adapted to cause infection in mice. Briefly: In vivo antibacterial protection (7 day survival of infected mice, ED50). More on the design: species or system mice strain CD-1. From the text:
In Vivo Antibacterial Protection
Female mice strain CD-1, approximately 18-22 grams, were received from Charles River Laboratories and quarantined 7 days prior to use. In addition, mice may be rendered neutropenic using cytoxan for particular studies.
Clinical isolates that have been adapted to cause infection in mice, are used in the experiment, including infections with strains of E. coli, K. pneumoniae, M. morganii, E. cloacae, S. marcescens, C. freundii, staphylococci, streptococci, P. aeruginosa and N. gonorrhoeae.
Mice are challenged by injecting 0.5 ml intraperitoneally or 0.05 ml intranasally of a predetermined bacterial inoculum suspended in broth, saline or hog gastric mucin (supplemented with dried bovine hemoglobin for N. gonorrhoeae). […] Antibacterial doses (dose concentration prepared by two fold serial dilutions of the antibiotic) are dissolved or suspended in 0.2% aqueous agar or methocel, phosphate buffered saline or an adjuvant are administered orally, subcutaneously or intravenously in the following manner: • a) Orally or subcutaneously: Dose volume of 0.5 ml administered ½ hr after infection. A second dose may be administered 3 hr. after infection for treatment of infections with more virulent organisms. • b) Intravenously: Dose volume of 0.2 ml, administered ½ hr. after infection. For the treatment of infections with more virulent organisms, more doses, up to 48 hr may be administered. (Intravenous dosing will not exceed 3 doses/24 hr period.) • c) Oral pretreatment: Under special circumstances, the pH of the stomach needs to be adjusted in order to increase the gastric stability of the antibiotic. For this purpose, 0.5 ml of phosphate buffered saline (pH7.8, 0.06M) (or specific approved adjuvant) is administered orally ½ hr after infection, followed 5 minutes later by 0.5 ml of antibiotic (also orally) contained in phosphate buffered saline (pH7.8, 0.06M). Animal Species
A detailed explanation as to the number of animals needed for the determination of in vivo efficacy follows: • A) Novel antibiotics are tested at 5 different dose levels with 5 mice per dose level at each of three routes of administration (oral, subcutaneous and intravenous). […] This would require 25 mice/route with 3 routes/antibiotic or 75 mice per novel compound tested. One to two novel antibiotics will be tested per experiment (75-150 mice) • B) The effectiveness of the new compound must be compared to that of a standard, or antibiotic of known effectiveness. Known or previously tested antibiotics are tested at 5 dose levels with 5 mice per dose level by a single route of administration, for a total of 25 mice/antibiotic. Usually 3-6 antibiotics will be tested per experiment. (75-150 mice). • C) Untreated controls—In each of the above tests, untreated animals are infected with 3 different concentrations of bacterial inoculum with 10 mice per concentration (30 mice total in each and every test). These untreated controls are used to determine and maintain the infection level between 10-100 LD50s as required for test to test comparison and validity. Determination of Protective Effects of Antibacterial Agents:
The protective effects of the antibacterial agent(s) are measured by the survival of the infected untreated as compared to the treated animals. For this determination, animals are observed for 7 days after treatment. A census of survivors is taken twice daily and at that time dead as well as moribund animals are removed. The 7 day survival ratio from three separate tests are pooled for estimation of median effective dose (ED50) by computerized program for probit analysis (Cleeland, R. and E. Squires. 1991. Evaluation of New Antimicrobials in Vitro and in Experimental Animal Infections. In Antibiotics in Laboratory Medicine”, 3rd. ed., edited by Victor Lorian. Willams and Wilkins Baltimore, Md. pp. 752-783). […]

Where [6] appears, read: Ratio of Piperacillin Inhibitor 4:1.

Sequence of class A β-lactamase TEM-1 (P62593 24-286 limits assumed): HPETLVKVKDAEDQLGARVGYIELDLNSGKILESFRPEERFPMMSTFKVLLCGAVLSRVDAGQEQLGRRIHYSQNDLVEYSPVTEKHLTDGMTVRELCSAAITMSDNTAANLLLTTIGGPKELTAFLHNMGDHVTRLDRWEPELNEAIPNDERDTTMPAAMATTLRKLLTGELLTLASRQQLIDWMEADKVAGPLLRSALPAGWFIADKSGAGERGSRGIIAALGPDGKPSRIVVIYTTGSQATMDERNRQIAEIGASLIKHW
Sequence of class C enzyme AmpC (P05364 21-381): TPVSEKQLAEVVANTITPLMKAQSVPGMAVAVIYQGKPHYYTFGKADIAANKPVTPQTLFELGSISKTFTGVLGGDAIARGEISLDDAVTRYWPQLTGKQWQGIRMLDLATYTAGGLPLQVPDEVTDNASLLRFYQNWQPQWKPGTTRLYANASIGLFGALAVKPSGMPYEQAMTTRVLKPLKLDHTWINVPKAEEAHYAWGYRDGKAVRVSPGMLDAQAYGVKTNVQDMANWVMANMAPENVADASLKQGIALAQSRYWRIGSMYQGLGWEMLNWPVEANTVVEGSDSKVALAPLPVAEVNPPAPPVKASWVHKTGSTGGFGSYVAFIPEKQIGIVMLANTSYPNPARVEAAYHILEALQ
Sequence of class B enzyme CcrA (P25910 19-249): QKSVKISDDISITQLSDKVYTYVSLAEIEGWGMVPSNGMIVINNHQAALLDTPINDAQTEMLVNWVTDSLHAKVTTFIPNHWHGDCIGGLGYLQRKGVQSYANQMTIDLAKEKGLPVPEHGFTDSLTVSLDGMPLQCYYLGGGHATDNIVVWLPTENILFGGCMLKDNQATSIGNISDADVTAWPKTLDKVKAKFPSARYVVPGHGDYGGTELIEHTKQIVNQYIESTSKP
Sequence of class A β-lactamase Imi-1 (Q46991 entry or part of it): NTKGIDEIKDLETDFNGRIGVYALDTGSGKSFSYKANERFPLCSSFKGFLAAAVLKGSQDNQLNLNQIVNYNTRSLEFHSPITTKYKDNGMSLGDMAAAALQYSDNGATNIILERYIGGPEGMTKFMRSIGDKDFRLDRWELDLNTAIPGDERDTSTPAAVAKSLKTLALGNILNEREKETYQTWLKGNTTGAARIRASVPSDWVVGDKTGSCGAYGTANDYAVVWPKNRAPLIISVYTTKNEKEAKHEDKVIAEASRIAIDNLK

Turning to `O=C(O)C1=CS[C@@H]2/C(=C\c3cn4c(n3)sc3cc(Cl)ccc34)C(=O)N12` [Example 3], in the test on E. Cloacae GC1477 (Ampc), the “Minimal Inhibitory Concentration E. Cloacae GC1477 (Ampc)” value worked out at 16 µg/mL. Besides, the “Minimal Inhibitory Concentration E. Coli GC2844” value in the test on E. Coli GC2844 is 2 µg/mL. For the same compound, the “Minimal Inhibitory Concentration E. Coli GC2847 (TEM-1)” value with E. Coli GC2847 (TEM-1) is 4 µg/mL. Besides, in [1], the “Minimal Inhibitory Concentration P. aeruginos GC1764 (Ampc)” value stood at 8 µg/mL. The “Minimal Inhibitory Concentration E. Coli GC2920 (IRT-2)” value in the test with E. Coli GC2920 (IRT-2) was 1 µg/mL. For the same compound, the “Minimal Inhibitory Concentration E. Coli GC2894 (Ampc)” value with E. Coli GC2894 (Ampc) stood at 2 µg/mL. Besides, in the test with S. aureus GC2216, the “Minimal Inhibitory Concentration S. aureus GC2216” value is <0.06 µg/mL. Besides, in test [2], the “Minimal Inhibitory Concentration S. Marcescens GC1781 Sme-1 + Ampc” value was found to be 1 µg/mL. Moreover, in the test with E. Coli GC2203, the “Minimal Inhibitory Concentration E. Coli GC2203” value came out at 1 µg/mL. The IC50 on class C enzyme AmpC turned out to be 3.2 nM; in test [3], 22 nM; at class B enzyme CcrA it was 74 nM; in [4], 5.6 nM. In test [5] (setting [6]), the ED50 lay within 32 to 64 mg/kg.
Turning to `O=C(O)C1=CS[C@@H]2/C(=C\c3cn4c5c(sc4n3)CCCC5)C(=O)N12` [Example 19, (5R),(6Z)-7-oxo-6-(5,6,7,8-tetrahydroimidazo[2,1-b][1,3]benzothiazol-2-ylmethylene)-4-thia-1-azabicyclo[3.2.0]hept-2-ene-2-carboxylic acid], the “Minimal Inhibitory Concentration E. Cloacae GC1477 (Ampc)” value in the test on E. Cloacae GC1477 (Ampc) is 32 µg/mL. Further, in the test on E. Coli GC2844, the “Minimal Inhibitory Concentration E. Coli GC2844” value is 2 µg/mL. Also, in the test on E. Coli GC2847 (TEM-1), the “Minimal Inhibitory Concentration E. Coli GC2847 (TEM-1)” value stood at 8 µg/mL. The “Minimal Inhibitory Concentration P. aeruginos GC1764 (Ampc)” value in test [1] came out at 1 µg/mL. For the same compound, the “Minimal Inhibitory Concentration E. Coli GC2920 (IRT-2)” value in the test on E. Coli GC2920 (IRT-2) is 2 µg/mL. Also, in the test with E. Coli GC2894 (Ampc), the “Minimal Inhibitory Concentration E. Coli GC2894 (Ampc)” value was 4 µg/mL. In the test with S. aureus GC2216, the “Minimal Inhibitory Concentration S. aureus GC2216” value was “.06 µg/mL”. Further, the “Minimal Inhibitory Concentration S. Marcescens GC1781 Sme-1 + Ampc” value in test [2] amounted to 8 µg/mL. Also, the “Minimal Inhibitory Concentration E. Coli GC2203” value with E. Coli GC2203 was found to be 2 µg/mL. For the same compound, the half-maximal inhibitory concentration (IC50) came out at 0.62 nM on class C enzyme AmpC, 33 nM in test [3], 215 nM on class B enzyme CcrA and 1.9 nM in test [4]. Besides, the ED50 in [5] (Ratio of Piperacillin Inhibitor not given) came to 63 mg/kg.
In the case of `O=C(O)C1=CS[C@@H]2/C(=C\c3cn4c5c(sc4n3)CCC5)C(=O)N12` [Example 5, (5R),(6Z)-6-(6,7-dihydro-5H-cyclopenta[d]imidazo[2,1-b][1,3]thiazol-2-ylmethylene)-7-oxo-4-thia-1-azabicyclo[3.2.0]hept-2-ene-2-carboxylic acid], the “Minimal Inhibitory Concentration E. Cloacae GC1477 (Ampc)” value in the test on E. Cloacae GC1477 (Ampc) was found to be 16 µg/mL. For the same compound, the “Minimal Inhibitory Concentration E. Coli GC2844” value in the test on E. Coli GC2844 is 2 µg/mL. Besides, the “Minimal Inhibitory Concentration E. Coli GC2847 (TEM-1)” value with E. Coli GC2847 (TEM-1) amounted to 4 µg/mL. Besides, the “Minimal Inhibitory Concentration P. aeruginos GC1764 (Ampc)” value in test [1] is 1 µg/mL. The “Minimal Inhibitory Concentration E. Coli GC2920 (IRT-2)” value with E. Coli GC2920 (IRT-2) stood at 2 µg/mL. Moreover, the “Minimal Inhibitory Concentration E. Coli GC2894 (Ampc)” value with E. Coli GC2894 (Ampc) is 2 µg/mL. Also, the “Minimal Inhibitory Concentration S. aureus GC2216” value with S. aureus GC2216 was <0.06 µg/mL. In [2], the “Minimal Inhibitory Concentration S. Marcescens GC1781 Sme-1 + Ampc” value stood at 0.5 µg/mL. Besides, the “Minimal Inhibitory Concentration E. Coli GC2203” value with E. Coli GC2203 was 2 µg/mL. Further, the results for the IC50 (at class C enzyme AmpC; at class B enzyme CcrA; in [4]) were 2.1 nM, 240 nM and 1.4 nM, respectively. In addition, the ED50 in [5] (setting [6]) is listed as 19.5 mg/kg.

In general, IC50 refers to the concentration that inhibits the measured activity by half. A word on the ED50: it is the dose that gives a 50% effect, or the effect in half of the subjects.
